Paper PMC5762315, “Inhibition of polo-like kinase 4 (PLK4): a new therapeutic option for rhabdoid tumors and pediatric medulloblastoma” (Oncotarget, 2017)
Where “and” joins values, the source holds several entries; their conditions need not be identical. Equal values may be shown once.

What was measured:
various kinases [1] = target: various kinases (Homo sapiens, UniProt O15530); assay: biochemical; type: biochemical
various kinases [2] = target: T1, various kinases (Homo sapiens, UniProt O94806); assay: biochemical; type: biochemical; conditions: kinase PRKCN (PKD3); ZLYTE
T1 sequence (O94806 1-890): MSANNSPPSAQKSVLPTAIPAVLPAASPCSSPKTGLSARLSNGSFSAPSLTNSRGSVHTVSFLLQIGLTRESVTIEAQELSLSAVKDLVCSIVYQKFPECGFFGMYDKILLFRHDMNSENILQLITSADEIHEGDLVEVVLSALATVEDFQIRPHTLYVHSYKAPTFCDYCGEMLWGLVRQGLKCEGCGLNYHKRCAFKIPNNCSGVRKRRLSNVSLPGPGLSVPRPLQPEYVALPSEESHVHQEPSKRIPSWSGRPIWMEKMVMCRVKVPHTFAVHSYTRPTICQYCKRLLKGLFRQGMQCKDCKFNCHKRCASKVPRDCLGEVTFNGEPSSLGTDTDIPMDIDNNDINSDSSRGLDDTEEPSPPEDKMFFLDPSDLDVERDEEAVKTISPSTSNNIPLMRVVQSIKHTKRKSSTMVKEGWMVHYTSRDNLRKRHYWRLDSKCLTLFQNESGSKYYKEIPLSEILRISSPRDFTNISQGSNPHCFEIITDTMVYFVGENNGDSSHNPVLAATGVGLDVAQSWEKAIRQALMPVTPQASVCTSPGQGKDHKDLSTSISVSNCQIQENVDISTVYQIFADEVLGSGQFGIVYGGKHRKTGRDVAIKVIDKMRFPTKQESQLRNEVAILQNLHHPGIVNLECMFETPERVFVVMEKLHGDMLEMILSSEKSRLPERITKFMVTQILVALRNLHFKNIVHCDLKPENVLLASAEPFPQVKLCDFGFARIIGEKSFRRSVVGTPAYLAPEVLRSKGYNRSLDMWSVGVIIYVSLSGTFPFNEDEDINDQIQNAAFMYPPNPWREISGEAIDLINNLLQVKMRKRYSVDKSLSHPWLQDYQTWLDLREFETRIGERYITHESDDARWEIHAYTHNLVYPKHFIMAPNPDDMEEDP

various kinases [3] = target: various kinases (Homo sapiens, UniProt O95819); assay: biochemical; type: biochemical; conditions: MAP4K4 (HGK)
various kinases [4] = target: various kinases (Homo sapiens, UniProt P00519, G250E); assay: biochemical; type: biochemical; conditions: ABL1 G250E
various kinases [5] = target: various kinases (Homo sapiens, UniProt P00533, C797S); assay: biochemical; type: biochemical; conditions: EGFR (ErbB1) C797S
various kinases [6] = target: various kinases (Homo sapiens, UniProt P08069); assay: biochemical; type: biochemical; conditions: IGF1R
various kinases [7] = target: various kinases (Homo sapiens, UniProt P16234, V561D); assay: biochemical; type: biochemical; conditions: PDGFRA V561D
various kinases [8] = target: various kinases (Homo sapiens, UniProt P24941); assay: biochemical; type: biochemical; conditions: CDK2/cyclin A
various kinases [9] = target: various kinases (Homo sapiens, UniProt P42685); assay: biochemical; type: biochemical; conditions: FRK (PTK5)
various kinases [10] = target: various kinases (Homo sapiens, UniProt P45984); assay: biochemical; type: biochemical; conditions: MAPK9 (JNK2)
various kinases [11] = target: various kinases (Homo sapiens, UniProt P51813); assay: biochemical; type: biochemical; conditions: BMX
various kinases [12] = target: various kinases (Homo sapiens, UniProt P54756); assay: biochemical; type: biochemical; conditions: EPHA5
various kinases [13] = target: various kinases (Homo sapiens, UniProt Q02750); assay: biochemical; type: biochemical; conditions: MAP2K1 (MEK1)
various kinases [14] = target: various kinases (Homo sapiens, UniProt Q04759); assay: biochemical; type: biochemical; conditions: kinase PRKCQ (PKC theta); ZLYTE
various kinases [15] = target: various kinases (Homo sapiens, UniProt Q13554); assay: biochemical; type: biochemical; conditions: CAMK2B (CaMKII beta)
various kinases [16] = target: various kinases (Homo sapiens, UniProt Q13627); assay: biochemical; type: biochemical; conditions: DYRK1A
various kinases [17] = target: various kinases (Homo sapiens, UniProt Q8N752); assay: biochemical; type: biochemical; conditions: CSNK1A1L
various kinases [18] = target: various kinases (Homo sapiens, UniProt Q8NE63); assay: biochemical; type: biochemical; conditions: HIPK4
various kinases [19] = target: various kinases (Homo sapiens, UniProt Q8TDC3); assay: biochemical; type: biochemical; conditions: BRSK1 (SAD1)
various kinases [20] = target: various kinases (Homo sapiens, UniProt P11362, V561M); assay: LanthaScreen Eu Kinase Binding Assay, panel of 486 biochemical kinase assays; conditions: FGFR1 V561M
various kinases [21] = target: various kinases (Homo sapiens, UniProt P57058); assay: as above; conditions: HUNK
various kinases [22] = target: various kinases (Homo sapiens, UniProt Q13163); assay: as above; conditions: MAP2K5 (MEK5)
various kinases [23] = target: various kinases (Homo sapiens, UniProt Q9UBE8); assay: as above; conditions: NLK
various kinases [24] = target: various kinases (Homo sapiens, UniProt Q9UM73, R1275Q); assay: as above; conditions: ALK R1275Q
various kinases [25] = target: various kinases (Homo sapiens, UniProt Q9Y2K2); assay: as above; conditions: kinase SIK3; LanthaScreen Binding
DAOY MB cells = assay: Confluency assay (IncuCyte ZOOM), DAOY; type: cell-based, human; conditions: increasing concentrations starting at 31.25nM, 48 hours, p-value=0.029
Method: For further evaluation of the effect of the PLK4 inhibitor over tumor cell proliferation, confluency was measured over a 48 hour period. MON, BT-12, G401 and DAOY cells were plated in 96-well plates with a density of 6 x 10^4 per well. […] Confluency was monitored for 48 hours by taking phase contrast images every 2 hours and measured using an IncuCyte ZOOM system (Essen BioScience, USA). Experiments were performed in triplicates.

various kinases (Homo sapiens, UniProt O15530), sequence (O15530 whole entry): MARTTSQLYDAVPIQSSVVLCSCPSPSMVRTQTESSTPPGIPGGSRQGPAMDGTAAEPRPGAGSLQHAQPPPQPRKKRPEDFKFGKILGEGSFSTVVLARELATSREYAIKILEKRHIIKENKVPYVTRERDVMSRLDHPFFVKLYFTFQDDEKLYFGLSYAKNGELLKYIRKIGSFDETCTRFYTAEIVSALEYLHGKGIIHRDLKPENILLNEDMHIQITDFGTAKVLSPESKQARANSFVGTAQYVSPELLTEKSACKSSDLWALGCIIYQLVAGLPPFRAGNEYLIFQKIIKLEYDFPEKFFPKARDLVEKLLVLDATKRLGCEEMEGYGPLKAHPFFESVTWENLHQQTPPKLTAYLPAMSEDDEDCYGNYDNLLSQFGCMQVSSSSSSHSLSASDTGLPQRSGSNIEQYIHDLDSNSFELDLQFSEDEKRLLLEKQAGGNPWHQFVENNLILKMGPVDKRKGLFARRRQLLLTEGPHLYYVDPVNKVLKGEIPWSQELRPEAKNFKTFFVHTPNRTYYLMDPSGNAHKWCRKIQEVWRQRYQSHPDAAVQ
various kinases (Homo sapiens, UniProt Q04759), sequence (Q04759 whole entry): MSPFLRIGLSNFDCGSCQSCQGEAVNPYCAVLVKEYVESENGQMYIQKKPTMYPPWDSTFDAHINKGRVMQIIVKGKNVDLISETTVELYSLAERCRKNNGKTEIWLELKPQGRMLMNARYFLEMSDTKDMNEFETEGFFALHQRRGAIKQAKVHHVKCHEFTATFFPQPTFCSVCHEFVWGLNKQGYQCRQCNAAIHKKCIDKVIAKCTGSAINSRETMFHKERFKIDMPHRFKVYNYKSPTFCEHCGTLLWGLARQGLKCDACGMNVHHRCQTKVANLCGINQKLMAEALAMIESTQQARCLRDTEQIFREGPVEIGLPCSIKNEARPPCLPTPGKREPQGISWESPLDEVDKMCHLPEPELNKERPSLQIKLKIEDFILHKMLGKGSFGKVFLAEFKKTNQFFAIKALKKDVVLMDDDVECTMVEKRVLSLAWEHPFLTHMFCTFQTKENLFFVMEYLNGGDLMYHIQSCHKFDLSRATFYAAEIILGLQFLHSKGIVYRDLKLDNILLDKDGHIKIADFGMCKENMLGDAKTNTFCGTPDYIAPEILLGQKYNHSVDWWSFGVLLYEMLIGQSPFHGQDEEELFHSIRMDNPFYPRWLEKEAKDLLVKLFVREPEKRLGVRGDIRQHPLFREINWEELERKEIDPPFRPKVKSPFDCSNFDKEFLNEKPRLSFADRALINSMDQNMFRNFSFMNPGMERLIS
various kinases (Homo sapiens, UniProt Q9Y2K2), sequence (Q9Y2K2 whole entry): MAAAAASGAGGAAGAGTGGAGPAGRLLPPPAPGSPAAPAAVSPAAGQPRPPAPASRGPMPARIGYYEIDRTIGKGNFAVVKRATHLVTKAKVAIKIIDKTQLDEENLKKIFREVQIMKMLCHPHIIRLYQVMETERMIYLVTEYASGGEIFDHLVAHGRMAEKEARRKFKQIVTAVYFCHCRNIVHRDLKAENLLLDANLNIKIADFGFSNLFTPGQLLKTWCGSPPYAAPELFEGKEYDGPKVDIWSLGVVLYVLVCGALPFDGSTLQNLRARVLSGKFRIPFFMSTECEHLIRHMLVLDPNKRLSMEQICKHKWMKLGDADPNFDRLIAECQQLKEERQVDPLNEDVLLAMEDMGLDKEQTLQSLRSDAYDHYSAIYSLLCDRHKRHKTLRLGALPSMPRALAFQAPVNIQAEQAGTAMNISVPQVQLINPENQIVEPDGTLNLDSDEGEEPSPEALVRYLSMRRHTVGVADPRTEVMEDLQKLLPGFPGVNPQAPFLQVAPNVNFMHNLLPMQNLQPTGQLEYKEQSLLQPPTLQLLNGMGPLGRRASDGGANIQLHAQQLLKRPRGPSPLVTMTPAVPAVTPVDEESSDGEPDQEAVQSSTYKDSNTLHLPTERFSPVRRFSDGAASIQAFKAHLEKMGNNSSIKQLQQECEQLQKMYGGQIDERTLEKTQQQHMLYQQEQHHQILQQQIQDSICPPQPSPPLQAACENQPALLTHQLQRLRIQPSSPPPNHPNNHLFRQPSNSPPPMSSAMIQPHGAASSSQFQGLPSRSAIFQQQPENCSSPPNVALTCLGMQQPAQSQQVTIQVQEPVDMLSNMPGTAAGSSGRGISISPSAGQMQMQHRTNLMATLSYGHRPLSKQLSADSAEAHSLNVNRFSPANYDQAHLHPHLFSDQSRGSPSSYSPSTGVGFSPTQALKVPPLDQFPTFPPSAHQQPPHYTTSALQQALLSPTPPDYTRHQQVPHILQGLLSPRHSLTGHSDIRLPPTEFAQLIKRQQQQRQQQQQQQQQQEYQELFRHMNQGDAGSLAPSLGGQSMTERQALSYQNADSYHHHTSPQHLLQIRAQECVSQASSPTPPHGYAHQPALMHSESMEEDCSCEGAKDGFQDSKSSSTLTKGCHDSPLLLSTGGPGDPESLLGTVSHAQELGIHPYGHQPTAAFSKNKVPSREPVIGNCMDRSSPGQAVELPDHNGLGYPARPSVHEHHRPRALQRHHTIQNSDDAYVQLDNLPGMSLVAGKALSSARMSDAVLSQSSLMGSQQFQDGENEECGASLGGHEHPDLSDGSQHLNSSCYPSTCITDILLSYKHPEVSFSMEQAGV
various kinases (Homo sapiens, UniProt Q13554), sequence (Q13554 whole entry): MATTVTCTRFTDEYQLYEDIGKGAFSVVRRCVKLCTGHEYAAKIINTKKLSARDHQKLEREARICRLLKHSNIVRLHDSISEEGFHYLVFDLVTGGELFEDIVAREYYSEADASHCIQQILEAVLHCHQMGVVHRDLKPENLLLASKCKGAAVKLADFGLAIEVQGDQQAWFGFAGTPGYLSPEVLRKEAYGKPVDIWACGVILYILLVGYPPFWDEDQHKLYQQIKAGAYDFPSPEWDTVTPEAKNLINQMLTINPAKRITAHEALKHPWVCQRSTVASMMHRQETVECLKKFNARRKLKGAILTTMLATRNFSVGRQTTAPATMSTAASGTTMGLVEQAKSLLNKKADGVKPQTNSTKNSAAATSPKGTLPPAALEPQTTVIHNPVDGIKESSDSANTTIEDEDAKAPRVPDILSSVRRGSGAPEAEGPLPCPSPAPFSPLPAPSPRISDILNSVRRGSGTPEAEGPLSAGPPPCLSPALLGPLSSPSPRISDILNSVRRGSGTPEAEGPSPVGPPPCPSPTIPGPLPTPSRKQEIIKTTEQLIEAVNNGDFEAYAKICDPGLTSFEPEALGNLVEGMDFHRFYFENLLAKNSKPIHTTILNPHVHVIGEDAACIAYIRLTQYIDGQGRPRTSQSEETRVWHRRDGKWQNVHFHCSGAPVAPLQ
various kinases (Homo sapiens, UniProt O95819), sequence (O95819 whole entry): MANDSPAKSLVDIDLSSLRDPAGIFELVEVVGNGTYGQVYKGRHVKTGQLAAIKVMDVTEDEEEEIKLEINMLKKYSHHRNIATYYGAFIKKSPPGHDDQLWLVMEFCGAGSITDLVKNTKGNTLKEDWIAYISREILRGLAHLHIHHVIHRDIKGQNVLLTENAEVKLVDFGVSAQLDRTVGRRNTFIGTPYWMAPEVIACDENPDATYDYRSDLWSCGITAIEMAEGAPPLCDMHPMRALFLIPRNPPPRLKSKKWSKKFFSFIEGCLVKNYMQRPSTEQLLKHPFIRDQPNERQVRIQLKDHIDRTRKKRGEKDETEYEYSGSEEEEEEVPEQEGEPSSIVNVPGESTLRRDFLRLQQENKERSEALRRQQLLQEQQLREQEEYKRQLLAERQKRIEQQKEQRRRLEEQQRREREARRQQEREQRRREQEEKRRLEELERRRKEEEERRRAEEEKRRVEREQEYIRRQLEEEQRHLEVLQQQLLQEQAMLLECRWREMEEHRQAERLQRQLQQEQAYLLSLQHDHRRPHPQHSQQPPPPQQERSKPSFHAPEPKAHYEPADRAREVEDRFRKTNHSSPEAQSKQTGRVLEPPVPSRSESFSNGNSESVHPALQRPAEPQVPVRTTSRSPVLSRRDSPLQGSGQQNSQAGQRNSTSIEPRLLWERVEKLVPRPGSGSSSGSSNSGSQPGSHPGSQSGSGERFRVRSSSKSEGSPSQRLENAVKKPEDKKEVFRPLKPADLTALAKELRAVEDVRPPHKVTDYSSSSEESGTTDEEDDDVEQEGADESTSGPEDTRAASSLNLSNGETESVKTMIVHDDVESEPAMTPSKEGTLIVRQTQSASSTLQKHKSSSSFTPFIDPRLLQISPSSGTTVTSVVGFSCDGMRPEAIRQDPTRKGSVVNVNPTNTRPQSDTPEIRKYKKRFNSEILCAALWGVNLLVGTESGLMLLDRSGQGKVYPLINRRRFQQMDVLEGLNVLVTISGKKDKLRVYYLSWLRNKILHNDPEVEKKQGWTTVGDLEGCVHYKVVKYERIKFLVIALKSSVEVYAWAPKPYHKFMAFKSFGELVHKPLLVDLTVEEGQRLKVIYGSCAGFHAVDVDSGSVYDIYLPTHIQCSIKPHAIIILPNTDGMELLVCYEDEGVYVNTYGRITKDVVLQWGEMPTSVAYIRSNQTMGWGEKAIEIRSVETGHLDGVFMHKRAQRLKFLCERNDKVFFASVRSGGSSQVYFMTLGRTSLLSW
various kinases (Homo sapiens, UniProt Q8N752), sequence (Q8N752 whole entry): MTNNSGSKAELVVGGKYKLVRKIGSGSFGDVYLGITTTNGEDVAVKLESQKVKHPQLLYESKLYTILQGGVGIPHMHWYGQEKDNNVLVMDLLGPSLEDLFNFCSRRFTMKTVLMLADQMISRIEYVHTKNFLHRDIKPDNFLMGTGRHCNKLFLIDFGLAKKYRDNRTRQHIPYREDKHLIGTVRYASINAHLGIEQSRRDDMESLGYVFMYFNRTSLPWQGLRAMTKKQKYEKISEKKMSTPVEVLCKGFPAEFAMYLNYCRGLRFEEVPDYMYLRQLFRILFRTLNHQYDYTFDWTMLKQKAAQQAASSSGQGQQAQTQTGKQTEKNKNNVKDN

COc1ccc2c(c1)[C@]1(C[C@H]1c1ccc3c(/C=C/c4ccc(CN5C[C@@H](C)O[C@@H](C)C5)cc4)n[nH]c3c1)C(=O)N2 [CFI-400945]
% Inhibition (various kinases [1]; PDK1): 3% and 2%
% Inhibition (various kinases [1]; PDK1 Direct): 6%
% Inhibition Average (various kinases [2]): 4%
% Inhibition Duplicate #1 (various kinases [2]): 3%
% Inhibition Duplicate #2 (various kinases [2]): 4%
% Inhibition (various kinases [3]): 9% and 13%
% Inhibition (various kinases [4]): 45% and 42%
% Inhibition (various kinases [5]): 11% and 5%
% Inhibition (various kinases [6]): 8%
% Inhibition (various kinases [7]): 5% and 4%
% Inhibition (various kinases [8]): 7% and 2%
% Inhibition (various kinases [9]): 8% and 7%
% Inhibition (various kinases [10]): 9% and -1%
% Inhibition (various kinases [11]): 52% and 54%
% Inhibition (various kinases [12]): 8% and 5%
% Inhibition (various kinases [13]): 9%
% Inhibition Average (various kinases [14]): 7%
% Inhibition Duplicate #1 (various kinases [14]): 1%
% Inhibition Duplicate #2 (various kinases [14]): 13%
% Inhibition (various kinases [15]): 13% and 14%
% Inhibition (various kinases [16]): 2% and 4%
% Inhibition (various kinases [17]): 2% and 1%
% Inhibition (various kinases [18]): -1% and 2%
% Inhibition (various kinases [19]): 13% and 7%
% Inhibition (various kinases [20]): 55% and 57%
% Inhibition (various kinases [21]): 21% and 22%
% Inhibition (various kinases [22]): 6%
% Inhibition (various kinases [23]): -9% and -6%
% Inhibition (various kinases [24]): 65%
IC50 (various kinases [24]): 444 nM
% Inhibition Average (various kinases [25]): 5%
% Inhibition Duplicate #1 (various kinases [25]): 10%
% Inhibition Duplicate #2 (various kinases [25]): 1%
FC, delay in reaching confluency (DAOY MB cells): 1.70
